Tests used:
[1] = test system: CD-1 mice (male); conditions: oral administration; cited from earlier work
[2] = test system: CD-1 mice (male); assay: Acute toxicity by oral administration to mice; format: in vivo
Method: The acute toxicity, as tested by oral administration to CD-1 mice (male), of mono-L-aspartyl chlorin e6 tetra-sodium salt is already known to be such that its 50% lethal dose is 164 mg/kg, and thus the compound is of a low toxicity (refer to Japanese Patent Application Publication Kokai Hei 9-71531).

[3] = test system: MKSA cells (solid ascites carcinoma in the abdominal region); assay: Test Example 1: detection and therapy of tumor tissue by X-ray radiography (solid ascites carcinoma); format: in vivo, Male Balb/c mice
Method: (§1) Male Balb/c mice having a body weight of 16˜20 g (five mice per group) were inoculated, in their abdominal region, with MKSA cells to form a solid ascites carcinoma in the abdominal region of mouse. The mono-L-aspartyl chlorin e6-gold complex sodium salt (the product of Example 2 above) was administered at a dose of 0.01˜0.04 mg in the form of a physiological saline solution of said gold complex sodium salt to the cancer-bearing mice through their tail vein. At the end of one hour to three hours after the administration, the mice were anesthetized with nembutal. An X-ray beam containing the X-ray of the wavelength of 0.153 Å was irradiated from outside of the body to the abdominal region of the mice for an appropriate time.
X-ray image was formed by allowing the X-ray to pass through the abdominal region of mice and to expose and sensitize an X-ray film.
Thus, it was found and confirmed that the gold complex of the chlorin e6 derivative as administered to mice had exerted a cytocidal action to the ascites carcinoma cells upon the irradiation of X-ray to mice.

[4] = test system: lesions of arteriosclerosis of artery; assay: Test Example 2: detection and therapy of lesions of arteriosclerosis by X-ray radiography; format: in vivo, rabbit; conditions: 8 mg via ear vein
Method: To a rabbit having a high cholesteremia and a body weight of about 4 kg was administered 8 mg of the mono-L-aspartyl chlorin e6-gold complex sodium salt (the product of Example 2) through the ear vein. One hour after the administration, anesthesia with nembutal was done to the rabbit. Then, the whole body of the rabbit was irradiated for an appropriate time with an X-ray beam containing the X-ray of the wavelength of 0.153 Å which suited to the electron absorption of the K-shell of gold atom. The X-ray which had passed through the rabbit was allowed to sensitize an X-ray film and to produce X-ray image.

[5] = test system: PC-10 cells originated from human lung cancer; assay: Test Example 3: X-ray radiography of PC-10 solid cancer on the back of nude mice; format: in vivo; conditions: nude mice with PC-10 solid cancer on the back; procedure of Test Example 1
Method: as §1
The procedure of Test Example 1 was repeated except that the ascites carcinoma-bearing used in Test Example 1 were replaced by nude mice which had on the back of the body a solid cancer as formed by transplantation of PC-10 cells originated from human lung cancer.

| Compound | 50% lethal dose (acute toxicity) [1] [mg/kg] | acute toxicity upon oral administration, compared with mono-L-aspartyl chlorin e6 tetrasodium salt [2] | X-ray image of the solid cancer on X-ray film ([3]; 0.01~0.04 mg i.v. (tail vein), X-ray beam containing 0.153 Å irradiated 1-3 hours after administration) | dimensions of the solid cancer compared with those at the time of the X-ray photograph ([3]; one week after the X-ray irradiation, 0.01~0.04 mg i.v.) | X-ray image of the lesions of arteriosclerosis ([4]; rabbit with high cholesteremia, X-ray beam containing 0.153 Å one hour after administration) | dimensions of the lesions of arteriosclerosis compared with those at the time of X-ray irradiation ([4]; one week after the X-ray irradiation) | X-ray image of the solid cancer on X-ray film [5] |
| --- | --- | --- | --- | --- | --- | --- | --- |
| C=Cc1c(C)c2cc3nc(c(CC(=O)N[C@@H](CC(=O)[O-])C(=O)[O-])c4[nH]c(cc5nc(cc1[nH]2)C(C)=C5CC)c(C)c4C(=O)[O-])[C@@H](CCC(=O)[O-])[C@@H]3C.[Na+].[Na+].[Na+].[Na+] [mono-L-aspartyl chlorin e6 tetra-sodium salt] | 164 |  |  |  |  |  |  |
| mono-L-aspartyl chlorin e6-gold complex sodium salt [Example 2] |  | substantially same as that of the mono-L-aspartyl chlorin e6 tetrasodium salt | sharply imaged | reduced significantly | sharp X-ray image | clearly diminished | Sharp X-ray image |
